Experimental findings from patent publication US9242987B2, “Heterocyclyl pyrazolopyrimidine analogues as JAK inhibitors” (Cellzome Limited, priority 2009, dated 2016) are described below.

The IC50 is the concentration that gives 50% inhibition. The low end stands for inhibition by little substance, the high end for a need for much substance.

Where a name gives a salt, the structure may show the parent alone. Where only a bound is given, the exact number is not on record here.

Assay [1] concerns the target T1, JAK2 (Homo sapiens, UniProt O60674).
T1 construct: endogenous in cells; host or cells: Mixed Molt4/Ramos lysate (1:2)
In words: Kinobeads assay, JAK2. Format: binding. The conditions noted are these: mixed Molt4/Ramos cell lysate, dot blot detection. As to the method: (§1) The compounds of the present invention as described in the previous examples were tested in a Kinobeads™ assay as described for ZAP-70 (WO-A 2007/137867). Briefly, test compounds (at various concentrations) and the affinity matrix with the immobilized aminopyrido-pyrimidine ligand 24 were added to cell lysate aliquots and allowed to bind to the proteins in the lysate sample. After the incubation time the beads with captured proteins were separated from the lysate. Bound proteins were then eluted and the presence of JAK2 and JAK3 was detected and quantified using specific antibodies in a dot blot procedure and the Odyssey infrared detection system. Dose response curves for individual kinases were generated and IC50 values calculated. Kinobeads™ assays for ZAP-70 (WO-A 2007/137867) and for kinase selectivity profiling (WO-A 2006/134056) have been previously described.
(§2) The affinity matrix was washed two times with 15 mL of 1×DP buffer containing 0.2% NP40 (IGEPAL® CA-630, Sigma, #13021) and then resuspended in 1×DP buffer containing 0.2% NP40 (3% beads slurry).
(§3) 5×DP buffer: 250 mM Tris-HCl pH 7.4, 25% Glycerol, 7.5 mM MgCl2, 750 mM NaCl, 5 mM Na3VO4; filter the 5×DP buffer through a 0.22 μm filter and store in aliquots at −80° C. The 5×DP buffer is diluted with H2O to 1×DP buffer containing 1 mM DTT and 25 mM NaF.
(§4) Stock solutions of test compounds were prepared in DMSO. In a 96 well plate 30 μL solution of diluted test compounds at 5 mM in DMSO were prepared. Starting with this solution a 1:3 dilution series (9 steps) was prepared. For control experiments (no test compound) a buffer containing 2% DMSO was used.
(§5) Molt4 cells (ATCC catalogue number CRL-1582) and Ramos cells (ATCC catalogue number CRL-1596) were grown in 1 L Spinner flasks (Integra Biosciences, #182101) in suspension in RPMI 1640 medium (Invitrogen, #21875-034) supplemented with 10% Fetal Bovine Serum (Invitrogen) at a density between 0.15×10^6 and 1.2×10^6 cells/mL. Cells were harvested by centrifugation, washed once with 1×PBS buffer (Invitrogen, #14190-094) and cell pellets were frozen in liquid nitrogen and subsequently stored at −80° C. Cells were homogenized in a Potter S homogenizer in lysis buffer: 50 mM Tris-HCl, 0.8% NP40, 5% glycerol, 150 mM NaCl, 1.5 mM MgCl2, 25 mM NaF, 1 mM sodium vanadate, 1 mM DTT, pH 7.5. One complete EDTA-free tablet (protease inhibitor cocktail, Roche Diagnostics, 1873580) per 25 mL buffer was added. The material was dounced 10 times using a mechanized POTTER S, transferred to 50 mL falcon tubes, incubated for 30 minutes on ice and spun down for 10 minutes at 20,000 g at 4° C. (10,000 rpm in Sorvall SLA600, precooled). The supernatant was transferred to an ultracentrifuge (UZ)-polycarbonate tube (Beckmann, 355654) and spun for 1 hour at 100.000 g at 4° C. (33.500 rpm in Ti50.2, precooled). The supernatant was transferred again to a fresh 50 mL falcon tube, the protein concentration was determined by a Bradford assay (BioRad) and samples containing 50 mg of protein per aliquot were prepared. The samples were immediately used for experiments or frozen in liquid nitrogen and stored frozen at −80° C.
(§6) Cell lysate (approximately 50 mg protein per plate) was thawed in a water bath at room temperature and then stored on ice. To the thawed cell lysate 1×DP 0.8% NP40 buffer containing protease inhibitors (1 tablet for 25 mL buffer; EDTA-free protease inhibitor cocktail; Roche Diagnostics 1873580) was added in order to reach a final protein concentration of 10 mg/mL total protein. The diluted cell lysate was stored on ice. Mixed Molt4/Ramos lysate was prepared by combining one volume of Molt4 lysate and two volumes of Ramos lysate (ratio 1:2).
(§7) To a 96 well filter plate (Multiscreen HTS, BV Filter Plates, Millipore #MSBVN1250) were added per well: 100 μL affinity matrix (3% beads slurry), […], of compound solution, and 50 μL of diluted lysate. […]

Assay [2] concerns the target T2, JAK3 (Homo sapiens, UniProt P52333).
T2 construct: endogenous in cells; host or cells: Mixed Molt4/Ramos lysate (1:2)
T2 sequence (P52333 1-1124): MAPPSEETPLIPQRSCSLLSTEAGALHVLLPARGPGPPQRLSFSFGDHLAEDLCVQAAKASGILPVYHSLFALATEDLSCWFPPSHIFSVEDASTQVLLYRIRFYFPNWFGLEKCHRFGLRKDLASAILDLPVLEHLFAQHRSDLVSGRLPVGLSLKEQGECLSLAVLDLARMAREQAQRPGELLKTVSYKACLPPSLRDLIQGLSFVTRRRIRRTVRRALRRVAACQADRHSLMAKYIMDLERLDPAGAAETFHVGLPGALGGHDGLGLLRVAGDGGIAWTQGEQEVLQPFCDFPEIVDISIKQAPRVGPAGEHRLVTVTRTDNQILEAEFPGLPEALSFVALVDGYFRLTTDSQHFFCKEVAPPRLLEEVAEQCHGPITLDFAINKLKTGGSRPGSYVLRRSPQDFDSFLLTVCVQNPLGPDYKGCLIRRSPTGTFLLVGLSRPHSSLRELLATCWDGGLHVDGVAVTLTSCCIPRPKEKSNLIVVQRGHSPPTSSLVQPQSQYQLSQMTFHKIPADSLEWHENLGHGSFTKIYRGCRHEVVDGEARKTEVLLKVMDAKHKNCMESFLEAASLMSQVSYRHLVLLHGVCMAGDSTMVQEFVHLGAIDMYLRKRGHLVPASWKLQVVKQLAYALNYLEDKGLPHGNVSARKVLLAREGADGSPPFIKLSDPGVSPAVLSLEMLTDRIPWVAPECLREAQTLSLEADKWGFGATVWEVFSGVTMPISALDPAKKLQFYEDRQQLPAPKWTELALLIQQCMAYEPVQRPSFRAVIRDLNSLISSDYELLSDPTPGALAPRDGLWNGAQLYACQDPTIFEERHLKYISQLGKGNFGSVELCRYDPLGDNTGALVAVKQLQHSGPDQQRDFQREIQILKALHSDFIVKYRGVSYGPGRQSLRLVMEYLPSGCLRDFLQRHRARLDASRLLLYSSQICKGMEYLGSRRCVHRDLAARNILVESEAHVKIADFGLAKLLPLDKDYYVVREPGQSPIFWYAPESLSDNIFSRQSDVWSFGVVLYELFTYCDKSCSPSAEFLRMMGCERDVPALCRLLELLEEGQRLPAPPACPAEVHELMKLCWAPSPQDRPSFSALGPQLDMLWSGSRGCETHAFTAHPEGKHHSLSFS
In words: Kinobeads assay, JAK3. The conditions noted are these: mixed Molt4/Ramos cell lysate, dot blot detection. Format: binding. The protocol:
as §1, §2, §3, §4, §5, §6, §7

T1 sequence (O60674 whole entry): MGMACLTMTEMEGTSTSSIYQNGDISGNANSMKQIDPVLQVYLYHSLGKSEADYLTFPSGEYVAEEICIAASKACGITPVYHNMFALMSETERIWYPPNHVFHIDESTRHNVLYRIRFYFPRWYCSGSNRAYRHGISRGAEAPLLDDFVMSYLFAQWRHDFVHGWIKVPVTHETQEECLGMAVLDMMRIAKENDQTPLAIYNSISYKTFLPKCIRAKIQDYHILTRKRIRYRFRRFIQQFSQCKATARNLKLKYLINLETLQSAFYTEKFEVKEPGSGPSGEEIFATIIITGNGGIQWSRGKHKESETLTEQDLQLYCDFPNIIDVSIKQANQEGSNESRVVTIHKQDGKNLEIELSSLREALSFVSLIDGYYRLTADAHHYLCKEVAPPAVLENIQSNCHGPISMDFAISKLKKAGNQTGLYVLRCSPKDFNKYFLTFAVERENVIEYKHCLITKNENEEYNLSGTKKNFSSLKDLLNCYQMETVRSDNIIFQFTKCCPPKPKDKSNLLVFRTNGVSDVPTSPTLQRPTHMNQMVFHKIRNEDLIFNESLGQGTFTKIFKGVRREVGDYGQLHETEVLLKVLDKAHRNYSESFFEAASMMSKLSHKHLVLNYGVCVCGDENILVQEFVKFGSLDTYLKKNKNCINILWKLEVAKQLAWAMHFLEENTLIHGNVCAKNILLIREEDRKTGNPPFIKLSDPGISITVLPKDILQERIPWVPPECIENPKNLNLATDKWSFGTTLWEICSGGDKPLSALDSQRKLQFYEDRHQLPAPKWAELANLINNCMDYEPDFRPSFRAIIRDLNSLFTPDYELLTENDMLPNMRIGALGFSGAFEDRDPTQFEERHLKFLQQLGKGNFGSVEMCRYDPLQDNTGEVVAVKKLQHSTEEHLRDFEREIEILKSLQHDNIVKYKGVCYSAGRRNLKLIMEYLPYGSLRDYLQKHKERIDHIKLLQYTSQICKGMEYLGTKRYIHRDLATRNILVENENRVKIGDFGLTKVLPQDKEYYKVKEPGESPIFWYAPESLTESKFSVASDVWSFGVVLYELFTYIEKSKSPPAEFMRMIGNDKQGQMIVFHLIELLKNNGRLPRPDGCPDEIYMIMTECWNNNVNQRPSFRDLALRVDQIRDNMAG

For `Cn1cc(Nc2ncc3cnn(CCc4ccc(F)cc4)c3n2)cn1` [Example 82, 1-(4-Fluorophenethyl)-N-(1-methyl-1H-pyrazol-4-yl)-1H-pyrazolo[3,4-d]pyrimidin-6-amine], the IC50 lay in the range of 1000 to 10000 nM in assay [1] and 100 to 1000 nM in assay [2]. For the molecule `COc1nn(CC(F)F)cc1Nc1ncc2cnn(Cc3ccccc3C#N)c2n1` [Example 24, 2-((6-(1-(2,2-Difluoroethyl)-3-methoxy-1H-pyrazol-4-ylamino)-1H-pyrazolo[3,4-d]pyrimidin-1-yl)methyl)benzonitrile], the IC50 is ≥ 10000 nM in assay [1] and < 100 nM in assay [2]. Taken in the same sequence, the figures for `CS(=O)(=O)Nc1ccccc1Cn1ncc2cnc(Nc3cnn(CC(F)F)c3)nc21` [Example 131, N-(2-((6-((1-(2,2-Difluoroethyl)-1H-pyrazol-4-yl)amino)-1H-pyrazolo[3,4-d]pyrimidin-1-yl)methyl)phenyl)methanesulfonamide hydrochloride] were 100 to 1000 nM and < 100 nM. The corresponding values for `COc1nn(CC(F)F)cc1Nc1ncc2cnn(-c3ccc(S(N)(=O)=O)cc3)c2n1` [Example 71, 4-(6-((1-(2,2-Difluoroethyl)-3-methoxy-1H-pyrazol-4-yl)amino)-1H-pyrazolo[3,4-d]pyrimidin-1-yl)benzenesulfonamide] are ≥ 10000 nM and 100 to 1000 nM.

Take `Cn1cc(Nc2ncc3cnn(Cc4ccccc4NS(=O)(=O)CC(F)(F)F)c3n2)cn1` [Example 134]: the IC50 in assay [1] was 1000 to 10000 nM; in assay [2], < 100 nM. The corresponding values for `FC(F)Cn1cc(Nc2ncc3cnn(Cc4ccccc4C4CC4)c3n2)cn1` [Example 161, 1-(2-Cyclopropylbenzyl)-N-(1-(2,2-difluoroethyl)-1H-pyrazol-4-yl)-1H-pyrazolo[3,4-d]pyrimidin-6-amine] are 1000 to 10000 nM and 100 to 1000 nM. Take `CC(C)n1cc(Nc2ncc3cnn(Cc4ccccc4C#N)c3n2)cn1` [Example 12, 2-((6-(1-Isopropyl-1H-pyrazol-4-ylamino)-1H-pyrazolo[3,4-d]pyrimidin-1-yl)methyl)benzonitrile]: the results for the IC50 in assay [1] and in assay [2] were 1000 to 10000 nM and < 100 nM, respectively. With `COCCOc1cccc(Cn2ncc3cnc(Nc4cnn(CC(F)F)c4)nc32)c1` [Example 176, N-(1-(2,2-Difluoroethyl)-1H-pyrazol-4-yl)-1-(3-(2-methoxyethoxy)benzyl)-1H-pyrazolo[3,4-d]pyrimidin-6-amine], the IC50 in assay [1] is ≥ 10000 nM; in assay [2], 100 to 1000 nM.

Turning to `Cc1ccccc1Cn1ncc2cnc(Nc3cnn(C)c3)nc21` [Example 84, N-(1-Methyl-1H-pyrazol-4-yl)-1-(2-methylbenzyl)-1H-pyrazolo[3,4-d]pyrimidin-6-amine], the IC50 was 1000 to 10000 nM in assay [1] and < 100 nM in assay [2]. For the molecule `Cn1cc(Nc2ncc3cnn(Cc4cccc(OCCO)c4)c3n2)cn1` [Example 166, 2-(3-((6-((1-Methyl-1H-pyrazol-4-yl)amino)-1H-pyrazolo[3,4-d]pyrimidin-1-yl)methyl)phenoxy)ethanol], the results for the IC50 in assay [1] and in assay [2] were 1000 to 10000 nM and < 100 nM, respectively. On to `N#Cc1ccc(F)cc1Cn1ncc2cnc(Nc3cnn(CC(F)F)c3)nc21` [Example 130, 2-((6-((1-(2,2-Difluoroethyl)-1H-pyrazol-4-yl)amino)-1H-pyrazolo[3,4-d]pyrimidin-1-yl)methyl)-4-fluorobenzonitrile], for which the IC50 in assay [1] was 100 to 1000 nM; in assay [2], < 100 nM. Turning to `Cn1ccc(Nc2ncc3cnn(Cc4ccccc4F)c3n2)c1` [Example 241, 1-(2-Fluorobenzyl)-N-(1-methyl-1H-pyrrol-3-yl)-1H-pyrazolo[3,4-d]pyrimidin-6-amine], the IC50 in assay [1] was 1000 to 10000 nM; in assay [2], < 100 nM. On to `OCCn1cc(Nc2ncc3cnn(Cc4c(F)c(F)cc(F)c4F)c3n2)cn1` [Example 196, 2-(4-((1-(2,3,5,6-Tetrafluorobenzyl)-1H-pyrazolo[3,4-d]pyrimidin-6-yl)amino)-1H-pyrazol-1-yl)ethanol], for which the IC50 in assay [1] was 100 to 1000 nM; in assay [2], < 100 nM.

For the molecule `OCCn1cc(Nc2ncc3cnn(Cc4c(F)cccc4F)c3n2)cn1` [Example 73, 2-(4-((1-(2,6-Difluorobenzyl)-1H-pyrazolo[3,4-d]pyrimidin-6-yl)amino)-1H-pyrazol-1-yl)ethanol], the values for the IC50 in assay [1] and in assay [2] were 100 to 1000 nM and < 100 nM, respectively. The corresponding values for `Cn1cc(Nc2ncc3cnn(Cc4cccc(OCCN5CCCC5=O)c4)c3n2)cn1` [Example 225, 1-(2-(3-((6-((1-Methyl-1H-pyrazol-4-yl)amino)-1H-pyrazolo[3,4-d]pyrimidin-1-yl)methyl)phenoxy)ethyl)pyrrolidin-2-one] are ≥ 10000 nM and < 100 nM. Taken in the same sequence, the figures for `COc1cc(F)cc(Cn2ncc3cnc(Nc4cnn(C)c4)nc32)c1` [Example 104, 1-(3-Fluoro-5-methoxybenzyl)-N-(1-methyl-1H-pyrazol-4-yl)-1H-pyrazolo[3,4-d]pyrimidin-6-amine] were 100 to 1000 nM and < 100 nM. As for `O=C(c1cccc(Cn2ncc3cnc(Nc4cnn(CCO)c4)nc32)c1F)N1CCOCC1` [Example 313, (2-Fluoro-3-((6-((1-(2-hydroxyethyl)-1H-pyrazol-4-yl)amino)-1H-pyrazolo[3,4-d]pyrimidin-1-yl)methyl)phenyl)(morpholino)methanone], the IC50 in assay [1] is ≥ 10000 nM. On the same count and under the same terms, in the case of `Cn1cc(Nc2ncc3cnn(Cc4cccc(N5CCOCC5)c4)c3n2)cn1` [Example 162, N-(1-Methyl-1H-pyrazol-4-yl)-1-(3-morpholinobenzyl)-1H-pyrazolo[3,4-d]pyrimidin-6-amine] it was ≥ 10000 nM.
